Laboratory results: article PMC10897476, “Pyridylpiperazine efflux pump inhibitor boosts in vivo antibiotic efficacy against K. pneumoniae” (EMBO Molecular Medicine, 2023)
Marks after values point to notes of the source that are not given here.

Experiments:
[1] = system: K. pneumoniae AcrB^V448E RamR^mut; assay: MIC of antibiotics with and without EPI (REMA), double mutant; type: cell-based, Klebsiella pneumoniae; conditions: K. pneumoniae AcrB^V448E RamR^mut
Method: MIC experiments were carried out according to the CLSI guidelines (CLSI [2023]). Overnight cultures were diluted to an OD600 = 0.001 in CAMHB followed by addition of efflux pump inhibitors (EPIs) at a final concentration of 100 µM. […] Plates were incubated at 37 °C for up to 20 h. Bacterial viability was evaluated using the resazurin microtitre assay (REMA) and measured by fluorescence using a Tecan Spaert multimode plate reader (Ex: 530 nm Em: 590 nm). MICs were defined as the concentration that prevented 90% of resazurin turnover compared to the non-treated bacteria.

E. coli BW25113 = assay: PyrPip boosting of pyridomycin activity in E. coli (resazurin reduction); type: cell-based, Escherichia coli; conditions: read-out: PyrPip antibiotic boosting activity EC90; E. coli BW25113 in the presence of 8 μg/mL pyridomycin, resazurin reduction; mean ± SEM
Excerpt: With the aim of developing a PyrPip for in vivo efficacy studies in mice, it was important to optimise the metabolic stability of these efflux pump inhibitors to guarantee sufficient exposure in mice needed for antibiotic boosting. […] To identify metabolically stabilised PyrPips while maintaining AcrB inhibition, it was therefore decided to explore modifications to the quinoline core as well as the introduction of substituents at position 6 of the quinoline ring.

[2] = Plasma protein binding by equilibrium dialysis; type: in vitro ADME; conditions: pH 7.4, mouse plasma, read-out: plasma protein binding, Funbound
Method: In vitro plasma protein binding of BDM91288 (5) was measured in mouse plasma using equilibrium dialysis. The RED inserts were placed in a 48-well Teflon Plate (Pierce). Samples were prepared by mixing test compound with plasma at the appropriate concentration to reach a final drug concentration of 10 μM. Triplicate aliquots of plasma containing BDM91288 (5) at a concentration of 10 μM were pipetted to plasma side (red) of the insert and PBS pH 7.4 was placed into the receiver side (white) of the insert. The plate was covered with sealing tape and incubated in a 37 °C orbital shaker water bath for 4 h. Following incubation, samples were prepared in a mixed matrix configuration. Aliquots of samples were pipetted into 96-well plates and precipitation buffer was added to precipitate the proteins. Samples were mixed by vortexing, then centrifuged for 10 min at 12,000 rpm at 4 °C. The supernatant was assayed directly by LC-MS/MS. The following equation was used to calculate the percentage of bound drug fraction (% PPB) using this equilibrium dialysis method: % unbound = ([Buffer chamber]/[Plasma chamber) × 100.

| SMILES | Minimum Inhibitory Concentration ([1]; + 100 µM 1') [mg/L] | Minimum Inhibitory Concentration ([1]; + 100 µM 5) [mg/L] | Minimum Inhibitory Concentration ([1]; + 100 µM PAβN) | Minimum Inhibitory Concentration ([1]; No EPI) [mg/L] | EC90 (E. coli BW25113) [µM] | fraction unbound at 4 h, 10 μM [2] |
| --- | --- | --- | --- | --- | --- | --- |
| C[C@H]1COc2c(N3CCN(C)CC3)c(F)cc3c(=O)c(C(=O)O)cn1c23 [Levofloxacin] | 1.28 | 1.28 | 0.05^# mg/L | 1.28 | – | – |
| Clc1cc2cc(N3CCNCC3)ccc2nc1N1CCNCC1 [compound 5] | – | – | – | – | 3.3 ± 1.7 | 0.54 |
